Reference: patent publication US12415797B2, “Heterocyclic compound as CDK-HDAC double-channel inhibitor” (Hangzhou Innogate Pharma Co., Ltd., priority 2018, dated 2025)
pIC50: −log10 of the molar value. Where two headings read alike, the source gives them in different places.

Tests used:
Type in all cases: biochemical
CDK6/cycD3 = CDK6/cycD3 (Homo sapiens (Human), UniProt Q00534); assay: CDK6/cycD3 kinase Mobility Shift Assay; settings: CDK6/cycD3 15 nM, ATP Km 800 μM, 60 min, 28° C.
Method: (§1) In vitro enzymatic activity of the CDK isoforms CDK2/CycA2, CDK4/CycD3 and CDK6/cycD3 were measured using Mobility Shift Assay that monitors phosphorylation ratio of FAM labelled peptide (Peptide 18 for CDK2/CycA2, Peptide 8 for CDK4/CycD3). CDK2/CycA2 and CDK6/CycD3 were assayed under buffer conditions in the presence of 50 mM HEPES (pH 7.5), 10 mM MgCl2, 0.0015% Brij-35 and 2 mM dithiothreitol; CDK4/CycD3 with buffer condition of 20 mM HEPES (pH 7.5), 10 mM MgCl2, 0.01% Triton X-100 and 2 mM dithiothreitol. Prepare compounds to 50× of the final desired highest inhibitor concentration by 100% DMSO and serial dilution in 3-fold for total of 10 concentrations. For each isoform, dosage of enzyme and substrate are CDK2/CycA2 12 nM, ATP Km 39 μM; CDK4/CycD3 10 nM, ATP Km […]; CDK6/cycD3 15 nM, ATP Km 800 μM. After assay for 60 min, 180 min, 60 min respectively at 28° C., reactions were terminated with stop solution (50 mM EDTA, 0.015% Brij-35, 0.2% Coating Reagent #3 and 100 mM HEPES (pH 7.5)). Collect conversion on Caliper EZ Reader. IC50 values were calculated by fitting the dose-response curves with Xlfit excel add-in version 4.3.1.

CDK4/CycD3 = CDK4/CycD3 (Homo sapiens (Human), UniProt P11802); assay: CDK4/CycD3 kinase Mobility Shift Assay; settings: CDK4/CycD3 10 nM, ATP Km 221 μM, 180 min, 28° C.
Sequence of CDK4/CycD3 (P11802 whole entry, species assumed): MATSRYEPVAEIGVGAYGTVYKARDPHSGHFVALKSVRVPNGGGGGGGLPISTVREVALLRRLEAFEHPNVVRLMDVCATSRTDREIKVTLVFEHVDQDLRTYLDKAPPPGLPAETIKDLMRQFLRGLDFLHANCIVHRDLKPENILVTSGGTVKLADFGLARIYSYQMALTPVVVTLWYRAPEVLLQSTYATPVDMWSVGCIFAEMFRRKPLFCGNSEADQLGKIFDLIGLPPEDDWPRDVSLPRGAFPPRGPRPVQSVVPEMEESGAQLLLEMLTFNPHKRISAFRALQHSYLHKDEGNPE
Sequence of CDK4/CycD3 (P30281 whole entry partner, species assumed): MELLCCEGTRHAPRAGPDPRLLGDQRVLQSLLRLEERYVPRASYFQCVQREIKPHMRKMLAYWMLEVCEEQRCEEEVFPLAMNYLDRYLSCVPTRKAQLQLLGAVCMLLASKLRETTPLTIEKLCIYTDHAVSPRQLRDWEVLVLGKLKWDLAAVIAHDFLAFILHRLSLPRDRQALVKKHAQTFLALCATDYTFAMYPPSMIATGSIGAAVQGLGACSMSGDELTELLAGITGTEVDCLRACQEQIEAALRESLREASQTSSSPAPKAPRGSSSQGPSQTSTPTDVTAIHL
Method: as §1

HDAC-6 = HDAC-6 (Homo sapiens (Human), UniProt Q9UBN7); assay: HDAC-6 fluorogenic deacetylase assay (Ac-peptide-AMC); settings: read-out: HDAC6 (IC5)
Sequence of HDAC-6 (Q9UBN7 whole entry): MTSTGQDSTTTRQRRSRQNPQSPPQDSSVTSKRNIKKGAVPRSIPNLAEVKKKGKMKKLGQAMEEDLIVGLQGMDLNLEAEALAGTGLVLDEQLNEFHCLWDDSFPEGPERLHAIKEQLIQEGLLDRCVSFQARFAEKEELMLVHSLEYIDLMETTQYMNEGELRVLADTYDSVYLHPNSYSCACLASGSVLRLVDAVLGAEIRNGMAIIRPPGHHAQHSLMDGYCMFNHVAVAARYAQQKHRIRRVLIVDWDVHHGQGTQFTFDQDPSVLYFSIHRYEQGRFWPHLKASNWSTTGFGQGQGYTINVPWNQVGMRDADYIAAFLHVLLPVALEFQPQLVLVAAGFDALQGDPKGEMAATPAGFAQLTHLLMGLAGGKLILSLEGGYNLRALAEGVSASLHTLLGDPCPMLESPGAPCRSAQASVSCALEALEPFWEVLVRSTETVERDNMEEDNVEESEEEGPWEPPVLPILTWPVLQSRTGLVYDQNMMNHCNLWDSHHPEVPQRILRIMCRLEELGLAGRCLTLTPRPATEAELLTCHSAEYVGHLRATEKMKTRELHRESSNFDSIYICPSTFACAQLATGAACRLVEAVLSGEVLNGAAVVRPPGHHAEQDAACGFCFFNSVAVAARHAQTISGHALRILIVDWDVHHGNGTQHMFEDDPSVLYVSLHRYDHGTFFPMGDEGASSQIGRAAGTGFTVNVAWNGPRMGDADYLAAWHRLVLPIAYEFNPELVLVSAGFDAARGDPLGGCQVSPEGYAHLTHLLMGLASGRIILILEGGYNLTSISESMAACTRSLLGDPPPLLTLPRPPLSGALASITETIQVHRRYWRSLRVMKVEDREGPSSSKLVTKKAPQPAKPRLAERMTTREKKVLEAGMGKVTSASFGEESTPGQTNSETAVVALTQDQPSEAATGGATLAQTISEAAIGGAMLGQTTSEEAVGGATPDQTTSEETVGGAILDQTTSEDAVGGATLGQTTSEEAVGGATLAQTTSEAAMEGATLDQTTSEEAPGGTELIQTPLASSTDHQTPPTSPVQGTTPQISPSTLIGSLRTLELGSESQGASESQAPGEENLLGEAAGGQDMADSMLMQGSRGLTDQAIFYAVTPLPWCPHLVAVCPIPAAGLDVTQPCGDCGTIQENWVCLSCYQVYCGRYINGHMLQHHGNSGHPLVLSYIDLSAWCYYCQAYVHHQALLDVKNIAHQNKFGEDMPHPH
Method: (§2) The inhibitory effect of compounds on HDAC-1 and HDAC-6 function was determined in vitro using an optimized homogenous assay performed in 384-well plate format. In this assay, the recombinant, full-length HDAC-1, HDAC-2 or HDAC-6 protein (BPS Biosciences) was incubated with Ac-peptide-AMC with concentrations in the Km plot. Reactions were performed in Tris-based assay buffer and were followed for fluorogenic release of 7-amino-4-methylcoumarin from substrate upon deacetylase and trypsin enzymatic activity. Fluorescence measurements were obtained using a multilabel plate reader (Synergy MX with excitation at 355 nm and emission at 460 nm). Data were analyzed on a plate-by-plate basis for the linear range of fluorescence over time. Fit the data in GraphPad Prism V5.0 software to obtain IC50 values using equation (Y=Bottom+(Top-Bottom)/(1+10^((Log IC50−X)*Hill Slope), Y is % inhibition and X is compound concentration).

HDAC-1 = HDAC-1 (Homo sapiens (Human), UniProt Q13547); assay: HDAC-1 fluorogenic deacetylase assay (Ac-peptide-AMC); settings: recombinant, full-length protein, Ac-peptide-AMC substrate; read-out: HDAC1 (IC50)
Sequence of HDAC-1 (Q13547 whole entry): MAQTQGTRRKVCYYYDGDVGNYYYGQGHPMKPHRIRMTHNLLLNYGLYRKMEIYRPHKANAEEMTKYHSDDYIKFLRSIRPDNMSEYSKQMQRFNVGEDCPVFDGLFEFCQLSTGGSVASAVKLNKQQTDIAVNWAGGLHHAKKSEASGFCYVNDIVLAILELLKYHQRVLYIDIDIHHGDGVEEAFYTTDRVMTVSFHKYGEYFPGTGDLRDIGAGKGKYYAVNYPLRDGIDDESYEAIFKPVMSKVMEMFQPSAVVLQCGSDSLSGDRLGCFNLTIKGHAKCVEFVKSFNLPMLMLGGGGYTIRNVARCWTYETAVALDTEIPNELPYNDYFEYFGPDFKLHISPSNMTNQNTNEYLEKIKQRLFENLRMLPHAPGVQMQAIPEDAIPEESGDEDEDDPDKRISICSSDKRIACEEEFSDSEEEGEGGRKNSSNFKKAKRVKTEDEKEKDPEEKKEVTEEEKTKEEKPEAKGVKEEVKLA
Method: as §2

CDK2/CycA2 = CDK2/CycA2 (Homo sapiens (Human), UniProt P24941); assay: CDK2/CycA2 kinase Mobility Shift Assay; settings: CDK2/CycA2 12 nM, ATP Km 39 μM, 60 min, 28° C.
Method: as §1

[1] = recombinant, full-length protein, Ac-peptide-AMC substrate

Sequence of CDK6/cycD3 (Q00534 whole entry, species assumed, canonical isoform): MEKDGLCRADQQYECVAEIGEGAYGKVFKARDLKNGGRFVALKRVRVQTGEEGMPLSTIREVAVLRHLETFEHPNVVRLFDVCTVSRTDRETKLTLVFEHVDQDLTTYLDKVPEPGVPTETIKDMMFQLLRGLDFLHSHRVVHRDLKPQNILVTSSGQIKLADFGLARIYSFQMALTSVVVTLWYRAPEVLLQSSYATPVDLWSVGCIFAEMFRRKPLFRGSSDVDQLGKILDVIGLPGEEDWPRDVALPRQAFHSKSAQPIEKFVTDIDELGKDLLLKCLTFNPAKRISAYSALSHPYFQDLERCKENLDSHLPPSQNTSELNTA
Sequence of CDK6/cycD3 (P30281 whole entry partner, species assumed, canonical isoform): as the sequence (P30281 whole entry partner, species assumed) above

| Compound | pIC50 (CDK6/cycD3) | pIC50 (CDK4/CycD3) | pIC50 (HDAC-6; [1]) | pIC50 (HDAC-1) | pIC50 (CDK2/CycA2) | pIC50 (HDAC-6) |
| --- | --- | --- | --- | --- | --- | --- |
| Cc1nc2c(F)cc(-c3nc(Nc4cc(C(=O)NO)ccn4)ncc3F)cc2n1C(C)C [Compound 12, 2-((5-fluoro-4-(4-fluoro-1-isopropyl-2-methyl-1H-benzo[d]imidazol-6-yl)pyrimidin-2-yl)amino)-N-hydroxyisonicotinamide] | ≤ 6.00 | 7.00 to 8.00 | 7.00 to 8.00 | 6.30 to 7.00 | 7.00 to 8.00 | – |
| Cc1nc2c(F)cc(-c3nc(Nc4ccc(N(C)CCCCCCC(=O)NO)cn4)ncc3F)cc2n1C(C)C [Compound 3, 7-((6-((5-fluoro-4-(4-fluoro-1-isopropyl-2-methyl-1H-benzo[d]imidazol-6-yl)pyrimidin-2-yl)amino)pyridin-3-yl)(methyl)amino)-N-hydroxyheptanamide] | 7.00 to 8.00 | > 8.00 | 7.00 to 8.00 | 7.00 to 8.00 | 7.00 to 8.00 | – |
| Cc1nc2c(F)cc(-c3nc(Nc4ccc(C(=O)NO)nc4)ncc3F)cc2n1C(C)C [Compound 11, 5-((5-fluoro-4-(4-fluoro-1-isopropyl-2-methyl-1H-benzo[d]imidazol-6-yl)pyrimidin-2-yl)amino)-N-hydroxypicolinamide] | 7.00 to 8.00 | > 8.00 | ≤ 6.00 | ≤ 6.00 | > 8.00 | – |
| Cc1nc2c(F)cc(-c3nc(Nc4ccc(-c5ccc(C(=O)NO)cn5)cn4)ncc3F)cc2n1C(C)C [Compound 16, 6′-((5-fluoro-4-(4-fluoro-1-isopropyl-2-methyl-1H-benzo[d]imidazol-6-yl)pyrimidin-2-yl)amino)-N-hydroxy-[2,3′-bipyridine]-5-carboxamide] | 7.00 to 8.00 | > 8.00 | 6.30 to 7.00 | ≤ 6.00 | > 8.00 | – |
| Cc1nc2c(F)cc(-c3nc(Nc4ccc(N(C)Cc5ccc(C(=O)NO)cc5)cn4)ncc3F)cc2n1C(C)C [Compound 6, 4-(((6-((5-fluoro-4-(4-fluoro-1-isopropyl-2-methyl-1H-benzo[d]imidazol-6-yl)pyrimidin-2-yl)amino)pyridin-3-yl)(methyl)amino)methyl)-N-hydroxybenzamide] | 7.00 to 8.00 | > 8.00 | 7.00 to 8.00 | 6.30 to 7.00 | > 8.00 | – |
| Cc1nc2c(F)cc(-c3nc(Nc4ccc(N(C)CCN(C)c5ncc(C(=O)NO)cn5)cn4)ncc3F)cc2n1C(C)C [Compound 2, 2-((2-((6-((5-fluoro-4-(4-fluoro-1-isopropyl-2-methyl-1H-benzo[d]imidazol-6-yl)pyrimidin-2-yl)amino)pyridin-3-yl)(methyl)amino)ethyl)(methyl)amino)-N-hydroxypyrimidine-5-carboxamide] | 7.00 to 8.00 | > 8.00 | 7.00 to 8.00 | > 8.00 | 6.30 to 7.00 | – |
| Cc1nc2c(F)cc(-c3nc(Nc4ccc(N(C)Cc5ccc(/C=C/C(=O)NO)cc5)cn4)ncc3F)cc2n1C(C)C [Compound 7, (E)-3-(4-(((6-((5-fluoro-4-(4-fluoro-1-isopropyl-2-methyl-1H-benzo[d]imidazol-6-yl)pyrimidin-2-yl)amino)pyridin-3-yl)(methyl)amino)methyl)phenyl)-N-hydroxyacrylamide] | 6.00 to 6.30 | 7.00 to 8.00 | 7.00 to 8.00 | 6.30 to 7.00 | 6.30 to 7.00 | – |
| Cc1nc2c(F)cc(-c3nc(Nc4ccc(C#CC(=O)NO)cn4)ncc3F)cc2n1C(C)C [Compound 17, 3-(6-((5-fluoro-4-(4-fluoro-1-isopropyl-2-methyl-1H-benzo[d]imidazol-6-yl)pyrimidin-2-yl)amino)pyridin-3-yl)-N-hydroxypropiolamide] | – | > 8.00 | – | – | – | – |

Results, then the molecule that gave them:

| pIC50 (CDK6/cycD3) | pIC50 (CDK4/CycD3) | pIC50 (HDAC-6; [1]) | pIC50 (HDAC-1) | pIC50 (CDK2/CycA2) | pIC50 (HDAC-6) | Compound |
| --- | --- | --- | --- | --- | --- | --- |
| 7.00 to 8.00 | > 8.00 | – | 7.00 to 8.00 | 7.00 to 8.00 | > 8.00 | Cc1nc2c(F)cc(-c3nc(Nc4ccc(N5CCN(Cc6ccc(C(=O)NO)cc6)CC5)cn4)ncc3F)cc2n1C(C)C [Compound 8, 4-((4-(6-((5-fluoro-4-(4-fluoro-1-isopropyl-2-methyl-1H-benzo[d]imidazol-6-yl)pyrimidin-2-yl)amino)pyridin-3-yl)piperazin-1-yl)methyl)-N-hydroxybenzamide] |
| 7.00 to 8.00 | > 8.00 | 7.00 to 8.00 | 6.30 to 7.00 | 7.00 to 8.00 | – | Cc1nc2c(F)cc(-c3nc(Nc4ccc(CN5CCN(CCCCCCC(=O)NO)CC5)cn4)ncc3F)cc2n1C(C)C [Compound 1, 7-(4-((6-((5-fluoro-4-(4-fluoro-1-isopropyl-2-methyl-1H-benzo[d]imidazol-6-yl)pyrimidin-2-yl)amino)pyridin-3-yl)methyl)piperazin-1-yl)-N-hydroxyheptanamide] |
| > 8.00 | > 8.00 | 7.00 to 8.00 | ≤ 6.00 | 7.00 to 8.00 | – | Cc1nc2c(F)cc(-c3nc(Nc4ccc(N5CCN(CCCCC(=O)NO)CC5)cn4)ncc3F)cc2n1C(C)C [Compound 13, 5-(4-(6-((5-fluoro-4-(4-fluoro-1-isopropyl-2-methyl-1H-benzo[d]imidazol-6-yl)pyrimidin-2-yl)amino)pyridin-3-yl)piperazin-1-yl)-N-hydroxypentanamide] |
| 7.00 to 8.00 | > 8.00 | 6.30 to 7.00 | ≤ 6.00 | 7.00 to 8.00 | – | Cc1nc2c(F)cc(-c3nc(Nc4ccc(N5CCC(C(=O)NO)CC5)cn4)ncc3F)cc2n1C(C)C [Compound 15, 1-(6-((5-fluoro-4-(4-fluoro-1-isopropyl-2-methyl-1H-benzo[d]imidazol-6-yl)pyrimidin-2-yl)amino)pyridin-3-yl)-N-hydroxypiperidine-4-carboxamide] |
| 7.00 to 8.00 | > 8.00 | 6.00 to 6.30 | ≤ 6.00 | 7.00 to 8.00 | – | Cc1nc2c(F)cc(-c3nc(Nc4ccc(N5CCN(CCC(=O)NO)CC5)cn4)ncc3F)cc2n1C(C)C [Compound 14, 3-(4-(6-((5-fluoro-4-(4-fluoro-1-isopropyl-2-methyl-1H-benzo[d]imidazol-6-yl)pyrimidin-2-yl)amino)pyridin-3-yl)piperazin-1-yl)-N-hydroxypropanamide] |
| 6.30 to 7.00 | > 8.00 | 7.00 to 8.00 | ≤ 6.00 | 7.00 to 8.00 | – | Cc1nc2c(F)cc(-c3nc(Nc4ccc(/C=C/C(=O)NO)cn4)ncc3F)cc2n1C(C)C [Compound 5, (E)-3-(6-((5-fluoro-4-(4-fluoro-1-isopropyl-2-methyl-1H-benzo[d]imidazol-6-yl)pyrimidin-2-yl)amino)pyridin-3-yl)-N-hydroxyacrylamide] |
| 6.30 to 7.00 | > 8.00 | – | 6.30 to 7.00 | 6.30 to 7.00 | > 8.00 | Cc1nc2c(F)cc(-c3nc(Nc4ccc(C(=O)NO)cn4)ncc3F)cc2n1C(C)C [Compound 4, 6-((5-fluoro-4-(4-fluoro-1-isopropyl-2-methyl-1H-benzo[d]imidazol-6-yl)pyrimidin-2-yl)amino)-N-hydroxynicotinamide] |
| 7.00 to 8.00 | > 8.00 | – | ≤ 6.00 | 7.00 to 8.00 | > 8.00 | Cc1nc2c(F)cc(-c3nc(Nc4ccc(N5CCN(CCCCCCC(=O)NO)CC5)cn4)ncc3F)cc2n1C(C)C [Compound 9, 7-(4-(6-((5-fluoro-4-(4-fluoro-1-isopropyl-2-methyl-1H-benzo[d]imidazol-6-yl)pyrimidin-2-yl)amino)pyridin-3-yl)piperazin-1-yl)-N-hydroxyheptanamide] |
| > 8.00 | > 8.00 | – | 6.30 to 7.00 | 7.00 to 8.00 | > 8.00 | Cc1nc2c(F)cc(-c3nc(Nc4ccc(N5CCN(C(=O)CCCCCCC(=O)NO)CC5)cn4)ncc3F)cc2n1C(C)C [Compound 10, 8-(4-(6-((5-fluoro-4-(4-fluoro-1-isopropyl-2-methyl-1H-benzo[d]imidazol-6-yl)pyrimidin-2-yl)amino)pyridin-3-yl)piperazin-1-yl)-N-hydroxy-8-oxooctanamide] |
